Biological target: influenza RNA polymerase (Influenza A virus, UniProt P03431)
Test: Influenza polymerase assay (radiolabeled nucleotide incorporation)
Format: biochemical
Conditions: nucleotide triphosphates in influenza polymerase assay

influenza RNA polymerase, sequence (P03431 whole entry, looked up): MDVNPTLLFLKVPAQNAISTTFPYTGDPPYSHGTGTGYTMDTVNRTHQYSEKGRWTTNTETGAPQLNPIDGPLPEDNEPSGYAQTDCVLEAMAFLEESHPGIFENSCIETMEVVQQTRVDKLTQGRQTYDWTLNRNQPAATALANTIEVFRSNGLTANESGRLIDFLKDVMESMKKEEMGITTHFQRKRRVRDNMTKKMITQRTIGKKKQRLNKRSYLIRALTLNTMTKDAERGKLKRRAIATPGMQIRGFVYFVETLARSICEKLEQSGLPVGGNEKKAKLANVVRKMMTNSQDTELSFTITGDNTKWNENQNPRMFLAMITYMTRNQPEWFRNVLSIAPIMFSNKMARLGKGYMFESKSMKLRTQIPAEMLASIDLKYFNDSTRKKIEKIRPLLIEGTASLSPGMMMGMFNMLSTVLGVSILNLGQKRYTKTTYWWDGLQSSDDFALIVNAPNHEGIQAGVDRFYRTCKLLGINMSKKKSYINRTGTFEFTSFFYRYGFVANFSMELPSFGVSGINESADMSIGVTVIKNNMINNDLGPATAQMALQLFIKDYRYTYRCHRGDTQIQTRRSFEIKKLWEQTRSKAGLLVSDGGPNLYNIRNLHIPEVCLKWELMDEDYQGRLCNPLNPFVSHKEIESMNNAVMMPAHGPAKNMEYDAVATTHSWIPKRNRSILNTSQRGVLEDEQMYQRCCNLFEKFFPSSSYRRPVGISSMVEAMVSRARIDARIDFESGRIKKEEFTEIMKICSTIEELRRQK

Structure (SMILES)	IC50 [µM]
Nc1nc(=O)n([C@@H]2O[C@@](COP(=O)(O)OP(=O)(O)OP(=O)(O)O)(C(F)F)[C@@H](O)[C@H]2O)cc1Cl [TPP-5]	10 to 100
Nc1nc(=O)n([C@@H]2O[C@@](COP(=O)(O)OP(=O)(O)OP(=O)(O)O)(C(F)F)[C@@H](O)[C@H]2O)cc1F [TPP-6]	< 10
O=c1ccn([C@@H]2O[C@@](COP(=O)(O)OP(=O)(O)OP(=O)(O)O)(C(F)F)[C@@H](O)[C@H]2O)c(=O)[nH]1 [TPP-1]	10 to 100
O=c1[nH]c(=O)n([C@@H]2O[C@@](COP(=O)(O)OP(=O)(O)OP(=O)(O)O)(C(F)F)[C@@H](O)[C@H]2O)cc1Cl [TPP-2]	10 to 100
Nc1nc(N)c2ncn([C@@H]3O[C@@](COP(=O)(O)OP(=O)(O)OP(=O)(O)O)(C(F)F)[C@@H](O)[C@H]3O)c2n1 [TPP-7]	> 100
Nc1nc2c(ncn2[C@@H]2O[C@@](COP(=O)(O)OP(=O)(O)OP(=O)(O)O)(C(F)F)[C@@H](O)[C@H]2O)c(=O)[nH]1 [TPP-10]	< 10
O=c1[nH]c(=O)n([C@@H]2O[C@@](COP(=O)(O)OP(=O)(O)OP(=O)(O)O)(C(F)F)[C@@H](O)[C@H]2O)cc1F [TPP-3]	10 to 100
Nc1ncnc2c1ncn2[C@@H]1O[C@@](COP(=O)(O)OP(=O)(O)OP(=O)(O)O)(C(F)F)[C@@H](O)[C@H]1O [TPP-8]	< 10
Nc1ncnc2ncn([C@@H]3O[C@@](COP(=O)(O)OP(=O)(O)OP(=O)(O)O)(C(F)F)[C@@H](O)[C@H]3O)c12 [TPP-9]	< 10
Nc1ccn([C@@H]2O[C@@](COP(=O)(O)OP(=O)(O)OP(=O)(O)O)(C(F)F)[C@@H](O)[C@H]2O)c(=O)n1 [TPP-4]	< 10

From patent publication US9370569B2 (priority 2014, dated 2016)
